Assay results as given in US12545639B2, “3-substituted phenylamidine compounds, preparation and use thereof” (PI INDUSTRIES LTD., priority 2019, dated 2026).

Legend:
[1] = tested on: Pyricularia oryzae; experiment: microbe, parasite or virus in culture; format: cell-based; conditions: 168 h, read-out: control compared to the untreated check (radial growth)
[2] = tested on: Phakopsora pachyrhizi; experiment: Phakopsora pachyrhizi test in soybean, preventive, in vivo on plants; conditions: in Glycine max, read-out: Efficacy (% control), disease severity compared to the untreated check
[3] = tested on: Fusarium culmorum; experiment: Fusarium culmorum (foot rot of cereals) in vitro test, radial growth on potato dextrose agar; format: cell-based; conditions: 168 h, 300 ppm in potato dextrose agar, 25° C., 60% relative humidity, seven days, read-out: control compared to the untreated check (radial growth)
Experimental: Compounds were dissolved in 0.3% dimethyl sulfoxide and then added to potato dextrose agar medium just prior to dispensing it into petri dishes. 5 mL medium with the compound in the desired concentration was dispensed into 60 mm sterile petri-plates. After solidification each plate was seeded with a 5 mm size mycelial disc taken from the periphery of an actively growing virulent culture plate. Plates were incubated in growth chambers at 25° C. temperature and 60% relative humidity for seven days and then the radial growth was measured and compared to that of the untreated control.

[4] = tested on: Rhizoctonia solani; experiment: Rhizoctonia solani (rice sheath blight/potato black scurf) in vitro test, radial growth on potato dextrose agar; format: cell-based; conditions: 168 h, 300 ppm in potato dextrose agar, 25° C., 60% relative humidity, seven days, read-out: control compared to the untreated check (radial growth)
[5] = tested on: Colletotrichum capsici; experiment: Colletotrichum capsici (anthracnose) in vitro test, radial growth on potato dextrose agar; format: cell-based; conditions: Colletotrichum truncatum, 168 h; 300 ppm in potato dextrose agar; 25° C., 60% relative humidity, seven days; read-out: control compared to the untreated check (radial growth)
[6] = tested on: Alternaria solani; experiment: Alternaria solani (early blight of tomato/potato) in vitro test, radial growth on potato dextrose agar; format: cell-based; conditions: 168 h, 300 ppm in potato dextrose agar, 25° C., 60% relative humidity, seven days, read-out: control compared to the untreated check (radial growth)
[7] = tested on: Septoria lycopersici/Corynespora cassicola (CORYCA); experiment: Septoria lycopersici/Corynespora cassicola (CORYCA) (leaf spot of tomato) in vitro test, radial growth on potato dextrose agar; format: cell-based; conditions: 168 h, 300 ppm in potato dextrose agar, 25° C., 70% relative humidity, seven days, read-out: control compared to the untreated check (radial growth)
[8] = tested on: Botrytis cinerea; experiment: Botrytis cinerea (gray mold) in vitro test, radial growth on potato dextrose agar; format: cell-based; conditions: 168 h, 300 ppm in potato dextrose agar, 22° C., 90% relative humidity, seven days, read-out: control compared to the untreated check (radial growth)

CCN(C)C=Nc1cc(C)cc(Nc2ccc(F)c(OC)c2)c1Cl [Compound 275, N′-(2-chloro-3-((4-fluoro-3-methoxyphenyl)amino)-5-methylphenyl)-N-ethyl-N-methylformimidamide]
≥ 70%: inhibition of growth at 300 ppm [1] | pest or weed control at 500 ppm [2] | inhibition of growth at 300 ppm [3] | inhibition of growth at 300 ppm [4] | inhibition of growth at 300 ppm [5] | inhibition of growth at 300 ppm [6] | inhibition of growth at 300 ppm [7]

CCN(C)C=Nc1cc(C)cc(Cc2ccccc2Cl)c1Cl [Compound 13, N′-(2-chloro-3-(2-chlorobenzyl)-5-methylphenyl)-N-ethyl-N-methylformimidamide]
≥ 70%: inhibition of growth at 300 ppm [1] | inhibition of growth at 300 ppm [3] | inhibition of growth at 300 ppm [4] | inhibition of growth at 300 ppm [8] | inhibition of growth at 300 ppm [5] | inhibition of growth at 300 ppm [6] | inhibition of growth at 300 ppm [7]

CCN(C)C=Nc1cc(C)cc(N(C)c2cc(C)ccc2Cl)c1Cl [Compound 120, N′-(2-chloro-3-((2-chloro-5-methylphenyl)(methyl)amino)-5-methylphenyl)-N-ethyl-N-methylformimidamide]
≥ 70%: inhibition of growth at 300 ppm [1] | pest or weed control at 500 ppm [2] | inhibition of growth at 300 ppm [3] | inhibition of growth at 300 ppm [5] | inhibition of growth at 300 ppm [6] | inhibition of growth at 300 ppm [7]

CCN(C)C=Nc1cc(C)cc(Nc2ccc(C(C)(C)C)cc2)c1Cl [Compound 25, N′-(3-((4-(tert-butyl)phenyl)amino)-2-chloro-5-methylphenyl)-N-ethyl-N-methylformimidamide]
≥ 70%: inhibition of growth at 300 ppm [1] | inhibition of growth at 300 ppm [3] | inhibition of growth at 300 ppm [4] | inhibition of growth at 300 ppm [8] | inhibition of growth at 300 ppm [5] | inhibition of growth at 300 ppm [6] | inhibition of growth at 300 ppm [7]

CCN(C)C=Nc1cc(F)cc(Nc2cc(Cl)ccc2C)c1C [Compound 116, N′-(3-((5-chloro-2-methylphenyl)amino)-5-fluoro-2-methylphenyl)-N-ethyl-N-methylformimidamide]
≥ 70%: inhibition of growth at 300 ppm [1] | pest or weed control at 500 ppm [2] | inhibition of growth at 300 ppm [3] | inhibition of growth at 300 ppm [5] | inhibition of growth at 300 ppm [6] | inhibition of growth at 300 ppm [7]

CCN(C)C=Nc1cc(C)cc(Cc2ccc(C#N)cc2)c1Cl [Compound 46, N′-(2-chloro-3-(4-cyanobenzyl)-5-methylphenyl)-N-ethyl-N-methylformimidamide]
≥ 70%: inhibition of growth at 300 ppm [1] | inhibition of growth at 300 ppm [3] | inhibition of growth at 300 ppm [4] | inhibition of growth at 300 ppm [8] | inhibition of growth at 300 ppm [5] | inhibition of growth at 300 ppm [6]

CCN(C)C=Nc1cc(Cl)cc(Nc2ccc(OC)cc2)c1C [Compound 162, N′-(5-chloro-3-((4-methoxyphenyl)amino)-2-methylphenyl)-N-ethyl-N-methylformimidamide]
≥ 70%: inhibition of growth at 300 ppm [1] | inhibition of growth at 300 ppm [3] | inhibition of growth at 300 ppm [4] | inhibition of growth at 300 ppm [5] | inhibition of growth at 300 ppm [6] | inhibition of growth at 300 ppm [7]

CCN(C)C=Nc1cc(Cl)cc(Cc2ccc(C)cc2)c1C [Compound 105, N′-(5-chloro-2-methyl-3-(4-methylbenzyl)phenyl)-N-ethyl-N-methylformimidamide]
≥ 70%: inhibition of growth at 300 ppm [1] | pest or weed control at 500 ppm [2] | inhibition of growth at 300 ppm [3] | inhibition of growth at 300 ppm [4] | inhibition of growth at 300 ppm [8] | inhibition of growth at 300 ppm [5] | inhibition of growth at 300 ppm [6]

CCN(C)C=Nc1cc(C)cc(Cc2ccccc2C)c1C [Compound 4, N′-(2,5-dimethyl-3-(2-methylbenzyl)phenyl)-N-ethyl-N-methylformimidamide]
≥ 70%: inhibition of growth at 300 ppm [1] | inhibition of growth at 300 ppm [3] | inhibition of growth at 300 ppm [4] | inhibition of growth at 300 ppm [8] | inhibition of growth at 300 ppm [5] | inhibition of growth at 300 ppm [6] | inhibition of growth at 300 ppm [7]

CCN(C)C=Nc1cc(Cl)cc(Nc2cccc(Cl)c2)c1C [Compound 163, N′-(5-chloro-3-((3-chlorophenyl)amino)-2-methylphenyl)-N-ethyl-N-methylformimidamide]
≥ 70%: inhibition of growth at 300 ppm [1] | inhibition of growth at 300 ppm [3] | inhibition of growth at 300 ppm [4] | inhibition of growth at 300 ppm [8] | inhibition of growth at 300 ppm [5] | inhibition of growth at 300 ppm [6] | inhibition of growth at 300 ppm [7]

CCN(C)C=Nc1cc(C)cc(Nc2ncc(Cl)cc2C)c1Cl [Compound 112, N′-(2-chloro-3-((5-chloro-3-methylpyridin-2-yl)amino)-5-methylphenyl)-N-ethyl-N-methylformimidamide]
≥ 70%: inhibition of growth at 300 ppm [1] | inhibition of growth at 300 ppm [3] | inhibition of growth at 300 ppm [5] | inhibition of growth at 300 ppm [6] | inhibition of growth at 300 ppm [7]

CCN(C)C=Nc1cc(Cl)cc(Cc2ccc(C#N)cc2)c1C [Compound 246, N′-(5-chloro-3-(4-cyanobenzyl)-2-methylphenyl)-N-ethyl-N-methylformimidamide]
≥ 70%: inhibition of growth at 300 ppm [1] | inhibition of growth at 300 ppm [3] | inhibition of growth at 300 ppm [4] | inhibition of growth at 300 ppm [8] | inhibition of growth at 300 ppm [5] | inhibition of growth at 300 ppm [6]

CCN(C)C=Nc1cc(C)cc(Cc2ccc(C)cc2)c1C [Compound 2, N′-(2,5-dimethyl-3-(4-methylbenzyl)phenyl)-N-ethyl-N-methylformimidamide]
≥ 70%: inhibition of growth at 300 ppm [1] | inhibition of growth at 300 ppm [3] | inhibition of growth at 300 ppm [4] | inhibition of growth at 300 ppm [8] | inhibition of growth at 300 ppm [5] | inhibition of growth at 300 ppm [6] | inhibition of growth at 300 ppm [7]

CCN(C)C=Nc1cc(F)cc(Nc2ccc(F)c(F)c2)c1C [Compound 73, N′-(3-((3,4-difluorophenyl)amino)-5-fluoro-2-methylphenyl)-N-ethyl-N-methylformimidamide]
≥ 70%: inhibition of growth at 300 ppm [1] | inhibition of growth at 300 ppm [3] | inhibition of growth at 300 ppm [4] | inhibition of growth at 300 ppm [8] | inhibition of growth at 300 ppm [5] | inhibition of growth at 300 ppm [6] | inhibition of growth at 300 ppm [7]

CCN(C)C=Nc1cc(C)cc(Nc2ccc(SC(F)(F)F)cc2)c1Cl [Compound 26, N′-(2-chloro-5-methyl-3-((4-((trifluoromethyl)thio)phenyl)amino)phenyl)-N-ethyl-N-methylformimidamide]
≥ 70%: pest or weed control at 500 ppm [2] | inhibition of growth at 300 ppm [3] | inhibition of growth at 300 ppm [4] | inhibition of growth at 300 ppm [8] | inhibition of growth at 300 ppm [5] | inhibition of growth at 300 ppm [6]

CCN(C)C=Nc1cc(Cl)cc(Cc2ccccc2C)c1C [Compound 88, N′-(5-chloro-2-methyl-3-(2-methylbenzyl)phenyl)-N-ethyl-N-methylformimidamide]
≥ 70%: inhibition of growth at 300 ppm [1] | pest or weed control at 500 ppm [2] | inhibition of growth at 300 ppm [3] | inhibition of growth at 300 ppm [4] | inhibition of growth at 300 ppm [8] | inhibition of growth at 300 ppm [5] | inhibition of growth at 300 ppm [6]

CCN(C)C=Nc1cc(C)cc(Nc2cccc(F)c2)c1Cl [Compound 35, N′-(2-chloro-3-((3-fluorophenyl)amino)-5-methylphenyl)-N-ethyl-N-methylformimidamide]
≥ 70%: inhibition of growth at 300 ppm [1] | inhibition of growth at 300 ppm [3] | inhibition of growth at 300 ppm [4] | inhibition of growth at 300 ppm [8] | inhibition of growth at 300 ppm [5] | inhibition of growth at 300 ppm [6] | inhibition of growth at 300 ppm [7]

CCN(C)C=Nc1cc(C)cc(Cc2ccccc2C)c1Cl [Compound 12, N′-(2-chloro-5-methyl-3-(2-methylbenzyl)phenyl)-N-ethyl-N-methylformimidamide]
≥ 70%: inhibition of growth at 300 ppm [1] | inhibition of growth at 300 ppm [3] | inhibition of growth at 300 ppm [4] | inhibition of growth at 300 ppm [8] | inhibition of growth at 300 ppm [5] | inhibition of growth at 300 ppm [6] | inhibition of growth at 300 ppm [7]

CCN(C)C=Nc1cc(C)cc(Cc2cccc(F)c2)c1C [Compound 5, N-ethyl-N′-(3-(3-fluorobenzyl)-2,5-dimethylphenyl)-N-methylformimidamide]
≥ 70%: inhibition of growth at 300 ppm [1] | inhibition of growth at 300 ppm [3] | inhibition of growth at 300 ppm [4] | inhibition of growth at 300 ppm [8] | inhibition of growth at 300 ppm [5] | inhibition of growth at 300 ppm [6] | inhibition of growth at 300 ppm [7]

CCN(C)C=Nc1cc(C)cc(Cc2cccc(F)c2)c1SC [Compound 190, N-ethyl-N′-(3-(3-fluorobenzyl)-5-methyl-2-(methylthio)phenyl)-N-methylformimidamide]
≥ 70%: inhibition of growth at 300 ppm [1] | pest or weed control at 500 ppm [2] | inhibition of growth at 300 ppm [3] | inhibition of growth at 300 ppm [4] | inhibition of growth at 300 ppm [5] | inhibition of growth at 300 ppm [6]
